Numbers after ± are expanded uncertainties.
How the values were obtained:
[1] = Crystal; DTA
[2] = Molar enthalpy of transition or fusion; conditions: Crystal; DSC

Normal melting temperature [1]: 159.07 ± 0.53 °C
Molar enthalpy of transition or fusion [2]: 7.08 ± 0.454 kcal/mol
Structure (SMILES): C[C@@H]1O[C@@H](O[C@H]2[C@H](Oc3cc(O)c(C(=O)CCc4ccc(O)cc4)c(O)c3)O[C@H](CO)[C@@H](O)[C@@H]2O)[C@H](O)[C@H](O)[C@H]1O [naringin dihydrochalcone]

— the NIST ThermoML archive (doi:10.1021/acs.jced.6b00543)
